In PMC10206061, “Suxiao Jiuxin Pill attenuates acute myocardial ischemia via regulation of coronary artery tone” (Frontiers in Pharmacology, 2023):
Like-named read-outs stand apart in the source and are kept apart here.

Target: T1, Akt1 (Homo sapiens, UniProt P31749)
T1 construct: recombinant human Akt1 protein (1775-KS-010, Bio-Techne)
Assay: SPR (Biacore T200, Akt1 amine-coupled on CM5 chip, […] steady-state fit)
Assay type: binding

T1 sequence (P31749 whole entry): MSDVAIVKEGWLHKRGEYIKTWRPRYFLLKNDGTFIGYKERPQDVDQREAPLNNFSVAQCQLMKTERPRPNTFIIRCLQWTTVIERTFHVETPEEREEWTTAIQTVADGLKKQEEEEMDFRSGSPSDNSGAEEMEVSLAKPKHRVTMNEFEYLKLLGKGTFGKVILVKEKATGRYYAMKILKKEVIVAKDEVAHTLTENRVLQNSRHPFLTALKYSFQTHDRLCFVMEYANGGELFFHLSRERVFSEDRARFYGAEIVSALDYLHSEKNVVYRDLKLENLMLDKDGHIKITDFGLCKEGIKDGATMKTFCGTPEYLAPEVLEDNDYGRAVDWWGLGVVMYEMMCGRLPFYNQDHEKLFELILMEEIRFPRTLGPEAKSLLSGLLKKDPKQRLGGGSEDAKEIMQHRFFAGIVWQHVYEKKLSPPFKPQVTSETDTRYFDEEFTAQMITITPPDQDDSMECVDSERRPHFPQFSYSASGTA

| SMILES | Kd (read-out: Kd) | Kd |
| --- | --- | --- |
| COc1cc2ccc(=O)oc2cc1O [scopoletin] | 11.1 µM |  |
| CCCC[C@@H]1OC(=O)C2=C1CCC=C2 [senkyunolide A] |  | 752 µM |
